Results taken from the supplement of paper PMC10307832.

Legend:
Assay in all cases: relative viability (nuclei count vs DMSO), 5 days (fraction); higher = more cells survive
A549 = tested on: A549
Summary of the method: (§1)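 A single step with final 0.05% Triton X-100, 1% formaldehyde and 1 ug/ml Hoechst fixed the cells and stained nuclei 5 days after treatment. Lung cancer cell lines in 1536-well plates had been treated by pin tool the day after seeding with one drug alone or a fixed anchor-drug dose plus five library-drug doses (not always all listed) in √10 steps, and nuclei were counted on 4× images. Relative viability is the ratio of nuclei in treated wells to nuclei in vehicle wells, taken as the median of duplicate plates.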

NCI-H1563 = tested on: NCI-H1563
Summary of the method: as §1

NCI-H1623 = tested on: NCI-H1623
Summary of the method: as §1

NCI-H2342 = tested on: NCI-H2342
Summary of the method: as §1

NCI-H522 = tested on: NCI-H522
Summary of the method: as §1

SW 900 = tested on: SW 900
Summary of the method: as §1

`O=c1[nH]c2ccccc2n1C1CCN(CCCC(c2ccc(F)cc2)c2ccc(F)cc2)CC1` [Pimozide] + N=C(N)NC(=N)NCCc1ccccc1 [Phenformin] (partner 250 µM) gave a relative viability (A549; first compound 0.08 µM) of 0.154, a relative viability (A549; first compound 0.253 µM) of 0.171 and a relative viability (A549; first compound 0.8 µM) of 0.152. It also gave a relative viability (A549; first compound 2.53 µM) of 0.156, a relative viability (A549; first compound 8 µM) of 0.173 and a relative viability (NCI-H1563; first compound 0.08 µM) of 0.721. The relative viability (NCI-H1563; first compound 0.253 µM) was 0.771, the relative viability (NCI-H1563; first compound 0.8 µM) was 0.668 and the relative viability (NCI-H1563; first compound 2.53 µM) was 0.663. It also gave a relative viability (NCI-H1563; first compound 8 µM) of 0.64, a relative viability (NCI-H1623; first compound 0.253 µM) of 0.575 and a relative viability (NCI-H1623; first compound 0.8 µM) of 0.57. The relative viability (NCI-H1623; first compound 2.53 µM) was 0.617, the relative viability (NCI-H1623; first compound 8 µM) was 0.629 and the relative viability (NCI-H2342; first compound 0.08 µM) was 0.655. The relative viability (NCI-H2342; first compound 0.253 µM) was 0.543, the relative viability (NCI-H2342; first compound 0.8 µM) was 0.555 and the relative viability (NCI-H2342; first compound 2.53 µM) was 0.536. The relative viability (NCI-H2342; first compound 8 µM) was 0.639, the relative viability (NCI-H522; first compound 0.08 µM) was 0.569 and the relative viability (NCI-H522; first compound 0.253 µM) was 0.655. For the same molecule, the relative viability (NCI-H522; first compound 0.8 µM) was 0.628, the relative viability (NCI-H522; first compound 2.53 µM) was 0.804 and the relative viability (NCI-H522; first compound 8 µM) was 0.671. It also gave a relative viability (SW 900; first compound 0.08 µM) of 0.574, a relative viability (SW 900; first compound 0.253 µM) of 0.685 and a relative viability (SW 900; first compound 0.8 µM) of 0.375. The relative viability (SW 900; first compound 2.53 µM) was 0.552 and the relative viability (SW 900; first compound 8 µM) was 0.516.
`Cc1cnc(-c2cnc(NCCNc3ccc(C#N)cn3)nc2-c2ccc(Cl)cc2Cl)[nH]1` + Cc1nc(Nc2ncc(C(=O)Nc3c(C)cccc3Cl)s2)cc(N2CCN(CCO)CC2)n1 [Dasatinib] (partner 0.075 µM) showed a relative viability (NCI-H1563; first compound 0.08 µM) of 0.439, a relative viability (NCI-H1563; first compound 0.253 µM) of 0.471 and a relative viability (NCI-H1563; first compound 0.8 µM) of 0.51. The relative viability (NCI-H1563; first compound 2.53 µM) was 0.429, the relative viability (NCI-H1623; first compound 0.08 µM) was 0.5 and the relative viability (NCI-H1623; first compound 0.253 µM) was 0.536. For the same molecule, the relative viability (NCI-H1623; first compound 0.8 µM) was 0.472, the relative viability (NCI-H1623; first compound 2.53 µM) was 0.516 and the relative viability (NCI-H2342; first compound 0.08 µM) was 0.325. It also gave a relative viability (NCI-H2342; first compound 0.253 µM) of 0.321, a relative viability (NCI-H2342; first compound 0.8 µM) of 0.301 and a relative viability (NCI-H2342; first compound 2.53 µM) of 0.278. The relative viability (NCI-H522; first compound 0.08 µM) was 0.845, the relative viability (NCI-H522; first compound 0.253 µM) was 0.996 and the relative viability (NCI-H522; first compound 0.8 µM) was 0.737. It also gave a relative viability (NCI-H522; first compound 2.53 µM) of 0.844, a relative viability (SW 900; first compound 0.08 µM) of 0.64 and a relative viability (SW 900; first compound 0.253 µM) of 0.425. It also gave a relative viability (SW 900; first compound 0.8 µM) of 0.343 and a relative viability (SW 900; first compound 2.53 µM) of 0.404.
In the case of `Cc1cnc(-c2cnc(NCCNc3ccc(C#N)cn3)nc2-c2ccc(Cl)cc2Cl)[nH]1` + CCNC(=O)c1noc(-c2cc(C(C)C)c(O)cc2O)c1-c1ccc(CN2CCOCC2)cc1 [Luminespib] (partner 0.01 µM), the relative viability (NCI-H1563; first compound 0.08 µM) is reported as 0.473, the relative viability (NCI-H1563; first compound 0.253 µM) is reported as 0.535 and the relative viability (NCI-H1563; first compound 0.8 µM) is reported as 0.499. For the same molecule, the relative viability (NCI-H1563; first compound 2.53 µM) was 0.439, the relative viability (NCI-H1623; first compound 0.08 µM) was 0.594 and the relative viability (NCI-H1623; first compound 0.253 µM) was 0.622. The relative viability (NCI-H1623; first compound 0.8 µM) was 0.542, the relative viability (NCI-H1623; first compound 2.53 µM) was 0.507 and the relative viability (NCI-H2342; first compound 0.08 µM) was 0.825. It also gave a relative viability (NCI-H2342; first compound 0.253 µM) of 0.654, a relative viability (NCI-H2342; first compound 0.8 µM) of 0.694 and a relative viability (NCI-H2342; first compound 2.53 µM) of 0.584. It also gave a relative viability (NCI-H522; first compound 0.08 µM) of 1.14, a relative viability (NCI-H522; first compound 0.253 µM) of 1.02 and a relative viability (NCI-H522; first compound 0.8 µM) of 0.99. For the same molecule, the relative viability (NCI-H522; first compound 2.53 µM) was 1.31, the relative viability (SW 900; first compound 0.08 µM) was 0.196 and the relative viability (SW 900; first compound 0.253 µM) was 0.168. The relative viability (SW 900; first compound 0.8 µM) was 0.206 and the relative viability (SW 900; first compound 2.53 µM) was 0.203.
`O=c1[nH]c2ccccc2n1C1CCN(CCCC(c2ccc(F)cc2)c2ccc(F)cc2)CC1` [Pimozide] + Cc1nc(Nc2ncc(C(=O)Nc3c(C)cccc3Cl)s2)cc(N2CCN(CCO)CC2)n1 [Dasatinib] (partner 0.075 µM) was tested, and the relative viability (NCI-H1563; first compound 0.08 µM) was 0.474, the relative viability (NCI-H1563; first compound 0.253 µM) was 0.429 and the relative viability (NCI-H1563; first compound 0.8 µM) was 0.484. For the same molecule, the relative viability (NCI-H1563; first compound 2.53 µM) was 0.426, the relative viability (NCI-H1563; first compound 8 µM) was 0.459 and the relative viability (NCI-H1623; first compound 0.253 µM) was 0.597. For the same molecule, the relative viability (NCI-H1623; first compound 0.8 µM) was 0.536, the relative viability (NCI-H1623; first compound 2.53 µM) was 0.52 and the relative viability (NCI-H1623; first compound 8 µM) was 0.56. The relative viability (NCI-H2342; first compound 0.08 µM) was 0.33, the relative viability (NCI-H2342; first compound 0.253 µM) was 0.337 and the relative viability (NCI-H2342; first compound 0.8 µM) was 0.339. The relative viability (NCI-H2342; first compound 2.53 µM) was 0.299, the relative viability (NCI-H2342; first compound 8 µM) was 0.323 and the relative viability (NCI-H522; first compound 0.08 µM) was 0.856. For the same molecule, the relative viability (NCI-H522; first compound 0.253 µM) was 0.883, the relative viability (NCI-H522; first compound 0.8 µM) was 0.81 and the relative viability (NCI-H522; first compound 2.53 µM) was 0.924. It also gave a relative viability (NCI-H522; first compound 8 µM) of 0.86, a relative viability (SW 900; first compound 0.08 µM) of 0.51 and a relative viability (SW 900; first compound 0.253 µM) of 0.816. For the same molecule, the relative viability (SW 900; first compound 0.8 µM) was 0.37, the relative viability (SW 900; first compound 2.53 µM) was 0.551 and the relative viability (SW 900; first compound 8 µM) was 0.567.
